In PMC7557804, “The Anti-Microbial Peptide (Lin-SB056-1)2-K Reduces Pro-Inflammatory Cytokine Release through Interaction with Pseudomonas aeruginosa Lipopolysaccharide” (Antibiotics, 2020):

Test system: THP-1 macrophages
Experiment: LPS-induced cytokine production by THP-1 macrophages
Assay type: cell-based, Human
Conditions: P. aeruginosa LPS 10 ng/mL, 4 h, 37 °C, 5% CO2
Method: Human non-small-cell lung adenocarcinoma A549 cells (ATCC CCL-185; LGC Standards, Milan, Italy) and human monocytic THP-1 cells (ATCC TIB-202; LGC Standards) were cultured in tissue culture flasks in Dulbecco’s modified essential medium (DMEM) (Euroclone, Milan, Italy) and RPMI 1640 medium (Euroclone), respectively. Both media were supplemented with 2 mM L-glutamine (Euroclone) and 10% heat-inactivated fetal bovine serum (FBS; Euroclone). Confluent monolayers were detached from the culture flask with 0.25% trypsin/1 mM EDTA solution (Euroclone), suspended in complete culture medium and seeded into flat-bottom 96-well plates at a final density of 1 × 10^4 cells/well (A549) and 2 × 10^4 cells/well (THP-1). A549 cells were cultured for 24 h at 37 °C, 5% CO2 in order to allow adhesion and formation of semi-confluent monolayers. THP-1 cells were cultured for 3 days (37 °C, 5% CO2) in the presence of 100 nM TPA (Sigma-Aldrich, St. Louis, MO, USA) to induce their differentiation into macrophage-like cells.
The anti-inflammatory potential of lin-SB056-1 and (lin-SB056-1)2-K was assessed by evaluating their ability to reduce LPS-induced production of pro-inflammatory cytokines by A549 cells and THP-1 macrophages. […] Following incubation, cell culture supernatants were collected, filter sterilized (0.22 µm) and employed for the quantification of cytokines and the assessment of cell viability.
Different pro-inflammatory cytokines (i.e., IL-1β, IL-6, IL-8 and TNF-α) were quantified in cell culture supernatants through a bead-based multiplex immunoassay (LEGENDplex multi-analyte flow assay kit; BioLegend, San Diego, CA, USA) following manufacturer’s instructions. […] Following consecutive washing steps, the beads were resuspended in the LEGENDplex wash buffer and the samples were analyzed by flow cytometry (BD Accuri C6 flow cytometer; BD Biosciences, Mountain View, CA, United States). Data were acquired with the BD Accuri C6 software (BD Biosciences) (300 events per analyte) and analyzed with the LEGENDplex software (BioLegend). […]

[1] = 9.6 μM peptide, vs LPS-stimulated peptide-untreated control, statistically significant, mean of three independent experiments

## [KWKIRVRLSA]2-K [(lin-SB056-1)2-K, dendrimeric derivative of lin-SB056-1]
[1]
  reduction in secretion of IL-1β: 80%
  reduction in secretion of IL-6: 60%
Three independent experiments
  effect on TNF-α levels: a trend in decreasing TNF-α levels, no statistical significance was reached
